Results as given in article PMC10008561 (Nature Communications, 2023).
Values joined by “and” are separate entries in the source; they are usually repeats but may differ in a detail not shown here. Identical values can stand only once. Like-named read-outs stand apart in the source and are kept apart here.

Key:
human KOR [1] = biological target: T1, human KOR (Homo sapiens, UniProt P41145, W287A); test: cell-based; details: HTLA
T1 construct: expressed in transfected cells; host or cells: HEK 293T (ATCC, CRL-3216)
T1 sequence (P41145 whole entry W287A): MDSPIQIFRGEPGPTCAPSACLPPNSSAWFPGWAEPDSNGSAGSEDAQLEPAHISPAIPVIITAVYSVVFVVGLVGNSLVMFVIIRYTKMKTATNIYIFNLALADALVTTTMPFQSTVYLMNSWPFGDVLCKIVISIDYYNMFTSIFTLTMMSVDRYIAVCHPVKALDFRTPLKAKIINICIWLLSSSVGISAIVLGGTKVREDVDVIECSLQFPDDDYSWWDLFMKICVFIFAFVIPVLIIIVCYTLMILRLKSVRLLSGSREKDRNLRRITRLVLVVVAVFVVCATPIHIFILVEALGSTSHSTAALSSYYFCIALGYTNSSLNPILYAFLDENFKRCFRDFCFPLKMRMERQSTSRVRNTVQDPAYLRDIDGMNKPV

human KOR [2] = biological target: T2, human KOR (Homo sapiens, UniProt P41145); test: cell-based
T2 sequence (P41145 whole entry): as the sequence (P41145 whole entry W287A) above, with A287W counted along it

human KOR [3] = biological target: T3, human KOR (Homo sapiens, UniProt P41145, Q115N); test: cell-based; details: HTLA
T3 construct: expressed in transfected cells; host or cells: HEK 293T (ATCC, CRL-3216)
T3 sequence (P41145 whole entry Q115N): as the sequence (P41145 whole entry W287A) above, with Q115N, A287W counted along it

human KOR (GoA) = biological target: T4, human KOR (GoA) (Homo sapiens, UniProt P41145); test: cell-based; details: HEK-293T
T4 construct: expressed in transfected cells; host or cells: HEK293T
T4 sequence (P41145 whole entry): as the sequence (P41145 whole entry W287A) above, with A287W counted along it

human KOR [4] = biological target: T1, human KOR; test: cell-based; details: HEK-293T
human KOR [5] = biological target: T2, human KOR; test: cell-based; remark: listed apart in the source
human KOR [6] = biological target: T3, human KOR; test: cell-based; details: HEK-293T
KOR Q115N [7] = biological target: T5, KOR Q115N (Homo sapiens, UniProt P41145, Q115N); test: cell-based; set-up: expressed in transfected cells; host or cells: HEK 293T (ATCC, CRL-3216); details: read-out: cAMP response (Figure S4C), KOR Q115N, Log [Drug], replicate values
Target sequence in this assay (P41145 whole entry Q115N): as the sequence (P41145 whole entry W287A) above, with Q115N, A287W counted along it

human KOR (β-arrestin 1) = biological target: T6, human KOR (β-arrestin 1) (Homo sapiens, UniProt P41145); test: cell-based; details: HEK-293T
T6 construct: expressed in transfected cells; host or cells: HEK293T
T6 sequence (P41145 whole entry): as the sequence (P41145 whole entry W287A) above, with A287W counted along it

KOR [8] = test: Bias factor, Gz vs β-arrestin2 (BRET), U50,488 as reference; type: cell-based, human
KOR [9] = type: cell-based, human
human KOR (β-arrestin 2) = biological target: T7, human KOR (β-arrestin 2) (Homo sapiens, UniProt P41145); test: cell-based; details: HEK-293T
T7 construct: expressed in transfected cells; host or cells: HEK293T
T7 sequence (P41145 whole entry): as the sequence (P41145 whole entry W287A) above, with A287W counted along it

human KOR (GoB) = biological target: T8, human KOR (GoB) (Homo sapiens, UniProt P41145); test: cell-based; details: HEK-293T
T8 construct: expressed in transfected cells; host or cells: HEK293T
T8 sequence (P41145 whole entry): as the sequence (P41145 whole entry W287A) above, with A287W counted along it

human KOR (Gi3) = biological target: T9, human KOR (Gi3) (Homo sapiens, UniProt P41145); test: cell-based; details: HEK-293T
T9 construct: expressed in transfected cells; host or cells: HEK293T
T9 sequence (P41145 whole entry): as the sequence (P41145 whole entry W287A) above, with A287W counted along it

KOR Q115N [10] = biological target: T5, KOR Q115N; test: cell-based; set-up: TEV cleavage site (C); tTA transcription factor (C); expressed in transfected cells; host or cells: HTLA cells; details: read-out: Tango response (Figure S4C), KOR Q115N, Log [Drug], replicate values
Target sequence in this assay (P41145 whole entry Q115N): as the sequence (P41145 whole entry W287A) above, with Q115N, A287W counted along it
Target sequence in this assay (P32121 whole entry partner): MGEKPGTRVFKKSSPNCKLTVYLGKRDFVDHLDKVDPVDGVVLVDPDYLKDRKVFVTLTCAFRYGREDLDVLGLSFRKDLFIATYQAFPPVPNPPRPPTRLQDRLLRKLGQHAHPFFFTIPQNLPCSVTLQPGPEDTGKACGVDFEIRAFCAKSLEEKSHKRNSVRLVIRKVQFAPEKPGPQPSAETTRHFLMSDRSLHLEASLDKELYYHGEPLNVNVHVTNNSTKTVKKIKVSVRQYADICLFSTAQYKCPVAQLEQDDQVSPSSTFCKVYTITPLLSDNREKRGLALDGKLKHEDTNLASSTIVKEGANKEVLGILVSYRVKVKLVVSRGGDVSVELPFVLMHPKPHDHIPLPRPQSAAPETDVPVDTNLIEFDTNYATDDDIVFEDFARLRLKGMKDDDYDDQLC

human KOR [11] = biological target: T2, human KOR; test: cell-based; set-up: expressed in transfected cells; host or cells: HEK 293T (ATCC, CRL-3216); details: HEK-293T
human KOR (Gi2) = biological target: T10, human KOR (Gi2) (Homo sapiens, UniProt P41145); test: cell-based; details: HEK-293T
T10 construct: expressed in transfected cells; host or cells: HEK293T
T10 sequence (P41145 whole entry): as the sequence (P41145 whole entry W287A) above, with A287W counted along it

human KOR [12] = biological target: T2, human KOR; test: cell-based; set-up: expressed in transfected cells; host or cells: HEK 293T (ATCC, CRL-3216); details: HTLA
human KOR (Gi1) = biological target: T11, human KOR (Gi1) (Homo sapiens, UniProt P41145); test: cell-based
T11 construct: expressed in transfected cells; host or cells: HEK293T
T11 sequence (P41145 whole entry): as the sequence (P41145 whole entry W287A) above, with A287W counted along it

human KOR (Gz) = biological target: T12, human KOR (Gz) (Homo sapiens, UniProt P41145); test: cell-based; details: HEK-293T
T12 construct: expressed in transfected cells; host or cells: HEK293T
T12 sequence (P41145 whole entry): as the sequence (P41145 whole entry W287A) above, with A287W counted along it

human KOR (Gustducin) [13] = biological target: T13, human KOR (Gustducin) (Homo sapiens, UniProt P41145); test: cell-based
T13 construct: expressed in transfected cells; host or cells: HEK293T
T13 sequence (P41145 whole entry): as the sequence (P41145 whole entry W287A) above, with A287W counted along it

human KOR (Gustducin) [14] = details: cited from earlier work
[15] = read-out: βArrestin1 (Figure 5A concentration-response, replicate values)
[16] = read-out: cAMP response (Figure S4C)
[17] = read-out: Tango response (Figure S4C)
[18] = read-out: Gz (Figure 5A concentration-response, replicate values)

## COC(=O)N1CCN(C(=O)Cc2ccc(Cl)c(Cl)c2)C2C(N3CCCC3)CCCC21 (centres unmarked) [WMS-X600]
Human KOR [1]
  Emax: 108 ± 7%
Human KOR [2]
  increase of potency for arrestin signaling: 5 fold
  loss of potency in arrestin recruitment: 232 fold
Human KOR [3]
  Emax: 110 ± 6%
Human KOR (GoA)
  Emax: 99.8%
Human KOR [4]
  Emax: 98 ± 5%
Human KOR [5]
  increase of potency for G protein signaling: 10 fold
  loss of potency in G protein activation: 82 fold
Human KOR [6]
  Emax: 103 ± 1%
KOR Q115N [7]; M -6
  activation at 1 µM: 99.1%
KOR Q115N [7]; M -6.5
  activation at […]: 107%
KOR Q115N [7]; M -7
  activation at 0.1 µM: 105%
KOR Q115N [7]; M -7.5
  activation at […]: 104%
KOR Q115N [7]; M -8
  activation at 0.01 µM: 103%
KOR Q115N [7]; M -8.5
  activation at […]: 100%
KOR Q115N [7]; M -9
  activation at 0.001 µM: 97.8%
KOR Q115N [7]; M -9.5
  activation at […]: 101%
KOR Q115N [7]; M -10
  activation at 0.0001 µM: 92.8%
KOR Q115N [7]; M -10.5
  activation at 31.62 pM: 81.3%
KOR Q115N [7]; M -11
  activation at 10 pM: 56.3%
KOR Q115N [7]; M -11.5
  activation at 3.162 pM: 33.3%
Human KOR (β-arrestin 1)
  Emax: 93.8%
Human KOR (β-arrestin 1); [15]
  activation at 0.01 µM: 33.5%
  activation at 1 µM: 86.2%
  activation at 10 µM: 91.8%
KOR [8]
  bias factor towards arrestin pathway: 8.6
KOR [9]
  ΔΔLog τ/KA (95% confidence interval): 1 (0.81-1.19)
Human KOR (β-arrestin 2)
  Emax: 102 ± 6%
Human KOR (GoB)
  Emax: 99.2%
Human KOR (Gi3)
  Emax: 99.2%
KOR Q115N [10]; M -5
  activation at 10 µM: 120%
KOR Q115N [10]; M -5.5
  activation at […]: 124%
KOR Q115N [10]; M -6
  activation at 1 µM: 123%
KOR Q115N [10]; M -6.5
  activation at […]: 107%
KOR Q115N [10]; M -7
  activation at 0.1 µM: 112%
KOR Q115N [10]; M -8
  activation at 0.01 µM: 116%
KOR Q115N [10]; M -9.5
  activation at […]: 72.6%
KOR Q115N [10]; M -10
  activation at 0.0001 µM: 78.7%
KOR Q115N [10]; M -10.5
  activation at 31.62 pM: 43.5%
Human KOR [11]
  Emax: 95 ± 3%
Human KOR [11]; [16]
  activation at 31.62 pM: 34.2%
  activation at 0.0001 µM: 56.7%
  activation at 0.001 µM: 78.9%
  activation at 0.01 µM: 101%
  activation at 0.1 µM: 103%
  activation at 1 µM: 91.1%
  activation at […]: 68.9% and 97.5% and 102% and 90.6%
Human KOR (Gi2)
  Emax: 99.3%
Human KOR [12]
  Emax: 96 ± 5%
Human KOR [12]; [17]
  activation at 0.001 µM: 78.7%
  activation at 0.1 µM: 116%
  activation at 1 µM: 112%
  activation at 10 µM: 123%
  activation at […]: 43.5% and 72.6% and 125%
Human KOR (Gi1)
  Emax%: 101.3%
Human KOR (Gi1); HEK-293T
  Emax: 84 ± 8%
Human KOR (Gz)
  Emax: 97.7%
Human KOR (Gz); [18]
  activation at 0.001 µM: 86.2%
  activation at 0.01 µM: 100%
  activation at 0.1 µM: 101%
  activation at 1 µM: 95.2%
  activation at 10 µM: 97.8%
Human KOR (Gustducin) [13]
  Emax%: 94%
Human KOR (Gustducin) [13]; HEK-293T
  Emax: 93.6%

## dynorphin A 1–13
Human KOR (Gustducin) [14]
  activity at Gustducin: nearly inactive
